Read-outs that look alike come from different tables or passages of the source.
Assays:
[1] = small-scale tests of high-dose zeaxanthin in human volunteers (safety, skin tone); assay type: in vivo; conditions: dosages of 50 to 80 mg/day
Protocol: (§1) As mentioned above, the categories of pharmaceutical preparations and dietary (nutritional) supplements overlap, and there is no specific upper limit for dosages that would cause a dietary (nutritional) supplement to be reclassified as a pharmaceutical preparation. Safety data that was gathered on zeaxanthin, using high-dosage tests involving rats, indicated a “no adverse effect limit” (NOEL) level of at least 1200 mg/day. […] Accordingly, people who want tans, or who are planning to go on a vacation or other trip that will involve exposure to abnormally high levels of sunlight, may take large quantities of zeaxanthin (up to or even exceeding 100 mg/day), to help them avoid sunburn and obtain a deeper tanned color on their skin. Such use, even at very high quantities, would be regarded as taking a dietary supplement rather than a pharmaceutical, and such dosages would still remain far below the NOAEL levels that were determined by animal tests.

[2] = rats, high-dosage tests; Roche Vitamins 75-day Premarket Notification, FDA number 95S-0316; cited from earlier work
sunburn = sunburn after controlled high-intensity UV exposure of small skin areas in human volunteers; assay type: in vivo; conditions: 50 to 80 mg/day; small areas of skin exposed to medical-grade UV lamp
Protocol: as §1

[3] = chemical / lab tests, cited from earlier work
wet macular degeneration = assay: laser treatment using verteporfin in a patient with wet macular degeneration taking zeaxanthin; assay type: in vivo, human; conditions: one patient, daily zeaxanthin capsules before and after treatment
Description: As another example of the uncertainties and doubts that surround zeaxanthin among skilled physicians who treat eye diseases, the Inventor has personal knowledge of a patient who has the “wet” (or “exudative”) form of macular degeneration. This disease is characterized by aggressive growth of capillaries in and around certain layers of the retina, and it leads to rapid and devastating loss of vision. The best known treatment for wet AMD is called laser photocoagulation, or photodynamic therapy. It uses a drug called verteporfin, which is activated by a laser that is shone directly into the eyes of patients who have taken the drug. In October of 2003, a ZeaVision customer (a person) who was taking zeaxanthin capsules on a daily basis was scheduled to have a laser treatment using verteporfin, at the Wilmer Eye Institute in Baltimore, which is affiliated with the Johns Hopkins School of Medicine. This patient told their treating physician, who is one of the top experts in the world on treating macular degeneration, that they were taking zeaxanthin capsules on a daily basis. […] The results of that treatment, as measured up until the date this is being written, have been outstanding, and have been much better than was expected by the treating physician. […]

macular degeneration [4] = conditions: oral dosages; Newsome et al 1988 and others; cited from earlier work
macular degeneration [5] = conditions: cited from earlier work
[6] = naturally-occurring dextrorotatory stereoisomer; cited from earlier work

For `CC1=C(/C=C/C(C)=C/C=C/C(C)=C/C=C/C=C(C)/C=C/C=C(C)/C=C/C2=C(C)C[C@@H](O)CC2(C)C)C(C)(C)C[C@H](O)C1` [zeaxanthin], the “safety in human volunteers” value [1] is given as “entirely safe”, the “"no adverse effect limit" (NOEL) level” value [2] is given as “at least 1200 mg/day” and the “risk and severity of sunburn” value (sunburn) is given as “effective in reducing a person's risk and severity of sunburn”. For the same compound, the “potency in absorbing and quenching oxygen free radicals (anti-oxidant), versus lutein” value [3] was “more potent and effective than lutein”, the “potency in absorbing and quenching oxygen free radicals (anti-oxidant), versus lutein” value ([3]; listed as Zeaxanthin) was “better and more potent anti-oxidant than lutein” and the “results of laser-verteporfin treatment” value (wet macular degeneration) was “outstanding”.
For `[Zn]` [zinc], the “results of oral zinc in macular degeneration and other ocular problems” value (macular degeneration [4]) is given as “good, although not especially strong”, the “level of protection against macular degeneration” value (macular degeneration [5]; AREDS-1, high dosages (zinc 80 mg/day), some but not all patient categories) is given as “low and weak level of protection” and the “benefits of zinc in the AREDS-1 trial” value (macular degeneration [5]; compared with the combination of vitamins A, C, and E) is given as “strong enough to roughly match the benefits provided by a combination of vitamins A, C, and E”.
In the case of `O=C(O)CCCC[C@@H]1CCSS1` (racemic) [lipoic acid], the “anti-oxidant activity versus S (levorotatory) isomers” value [6] is listed as “better anti-oxidant activity”.

Source: patent US11173133B2, “Zeaxanthin formulations with additional ocular-active nutrients, for protecting eye health and treating eye disorders” (ZeaVision LLC, priority 2003, dated 2021)
